Experimental data reported in ChEMBL document CHEMBL2440076, “New triarylpyrazoles as broad-spectrum anticancer agents: design, synthesis, and biological evaluation” (Eur J Med Chem, 2013).

Experiments:
[1] = test system: SN12C; assay: Growth inhibition of human SN12C cells assessed as cell growth at 10 uM after 48 hrs by sulforhodamine B assay; type: functional; conditions: read-out: Activity
[2] = test system: UACC-62; assay: Growth inhibition of human UACC62 cells after 48 hrs by sulforhodamine B assay; type: functional; conditions: UACC-62, 48 h
[3] = test system: MDA-MB-435; assay: Growth inhibition of human MDA-MB-435 cells assessed as cell growth at 10 uM after 48 hrs by sulforhodamine B assay; type: functional; conditions: MDA-MB-435, 48 h, read-out: Activity
[4] = test system: HCT-116; assay: Growth inhibition of human HCT116 cells after 48 hrs by sulforhodamine B assay; type: functional; conditions: HCT-116, 48 h
[5] = test system: SK-MEL-28; assay: Growth inhibition of human SK-MEL-28 cells assessed as cell growth at 10 uM after 48 hrs by sulforhodamine B assay; type: functional; conditions: SK-MEL-28, 48 h, read-out: Activity
[6] = test system: 786-0; assay: Growth inhibition of human 786-0 cells assessed as cell growth at 10 uM after 48 hrs by sulforhodamine B assay; type: functional; conditions: 786-0, 48 h, read-out: Activity
[7] = test system: BT-549; assay: Growth inhibition of human BT549 cells after 48 hrs by sulforhodamine B assay; type: functional; conditions: BT-549, 48 h
[8] = test system: SW-620; assay: Growth inhibition of human SW620 cells assessed as cell growth at 10 uM after 48 hrs by sulforhodamine B assay; type: functional; conditions: SW-620, 48 h, read-out: Activity
[9] = test system: SW-620; assay: Growth inhibition of human SW620 cells after 48 hrs by sulforhodamine B assay; type: functional; conditions: SW-620, 48 h
[10] = test system: A498; assay: Growth inhibition of human A498 cells after 48 hrs by sulforhodamine B assay; type: functional, cell-based; conditions: A498, 48 h
[11] = test system: KM12; assay: Growth inhibition of human KM12 cells assessed as cell growth at 10 uM after 48 hrs by sulforhodamine B assay; type: functional; conditions: KM12, 48 h, read-out: Activity
[12] = test system: MOLT-4; assay: Growth inhibition of human MOLT4 cells assessed as cell growth at 10 uM after 48 hrs by sulforhodamine B assay; type: functional; conditions: MOLT-4, 48 h, read-out: Activity
[13] = test system: SF-539; assay: Growth inhibition of human SF539 cells after 48 hrs by sulforhodamine B assay; type: functional; conditions: SF-539, 48 h
[14] = test system: ACHN; assay: Growth inhibition of human ACHN cells assessed as cell growth at 10 uM after 48 hrs by sulforhodamine B assay; type: functional; conditions: read-out: Activity
[15] = test system: SF-295; assay: Growth inhibition of human SF295 cells after 48 hrs by sulforhodamine B assay; type: functional, cell-based; conditions: SF-295, 48 h
[16] = test system: ACHN; assay: Growth inhibition of human ACHN cells after 48 hrs by sulforhodamine B assay; type: functional
[17] = test system: NCI-H226; assay: Growth inhibition of human NCI-H226 cells assessed as cell growth at 10 uM after 48 hrs by sulforhodamine B assay; type: functional; conditions: NCI-H226, 48 h, read-out: Activity
[18] = test system: UACC-62; assay: Growth inhibition of human UACC62 cells assessed as cell growth at 10 uM after 48 hrs by sulforhodamine B assay; type: functional; conditions: UACC-62, 48 h, read-out: Activity
[19] = test system: NCI-H522; assay: Growth inhibition of human NCI-H522 cells after 48 hrs by sulforhodamine B assay; type: functional; conditions: NCI-H522, 48 h
[20] = test system: BT-549; assay: Growth inhibition of human BT549 cells assessed as cell growth at 10 uM after 48 hrs by sulforhodamine B assay; type: functional; conditions: BT-549, 48 h, read-out: Activity
[21] = test system: SF-539; assay: Growth inhibition of human SF539 cells assessed as cell growth at 10 uM after 48 hrs by sulforhodamine B assay; type: functional; conditions: SF-539, 48 h, read-out: Activity
[22] = test system: COLO 205; assay: Growth inhibition of human COLO205 cells after 48 hrs by sulforhodamine B assay; type: functional; conditions: COLO 205, 48 h
[23] = test system: RPMI-8226; assay: Growth inhibition of human RPMI8226 cells assessed as cell growth at 10 uM after 48 hrs by sulforhodamine B assay; type: functional; conditions: RPMI-8226, 48 h, read-out: Activity
[24] = test system: UACC-257; assay: Growth inhibition of human UACC257 cells after 48 hrs by sulforhodamine B assay; type: functional; conditions: UACC-257, 48 h
[25] = test system: RXF 393; assay: Growth inhibition of human RXF393 cells after 48 hrs by sulforhodamine B assay; type: functional; conditions: RXF 393, 48 h
[26] = test system: A498; assay: Growth inhibition of human A498 cells assessed as cell growth at 10 uM after 48 hrs by sulforhodamine B assay; type: functional; conditions: A498, 48 h, read-out: Activity
[27] = test system: CAKI-1; assay: Growth inhibition of human CAKI-1 cells assessed as cell growth at 10 uM after 48 hrs by sulforhodamine B assay; type: functional; conditions: CAKI-1, 48 h, read-out: Activity
[28] = test system: SK-MEL-28; assay: Growth inhibition of human SK-MEL-28 cells after 48 hrs by sulforhodamine B assay; type: functional; conditions: SK-MEL-28, 48 h
[29] = test system: UACC-257; assay: Growth inhibition of human UACC257 cells assessed as cell growth at 10 uM after 48 hrs by sulforhodamine B assay; type: functional; conditions: UACC-257, 48 h, read-out: Activity
[30] = Growth inhibition of human HCC2998 cells after 48 hrs by sulforhodamine B assay; type: functional; conditions: HCC 2998, 48 h
[31] = test system: DU-145; assay: Growth inhibition of human DU145 cells assessed as cell growth at 10 uM after 48 hrs by sulforhodamine B assay; type: functional; conditions: DU-145, 48 h, read-out: Activity
[32] = test system: IGROV-1; assay: Growth inhibition of human IGROV1 cells after 48 hrs by sulforhodamine B assay; type: functional; conditions: IGROV-1, 48 h
[33] = test system: NCI-H322M; assay: Growth inhibition of human NCI-H322M cells assessed as cell growth at 10 uM after 48 hrs by sulforhodamine B assay; type: functional; conditions: read-out: Activity
[34] = test system: MCF7; assay: Growth inhibition of human MCF7 cells assessed as cell growth at 10 uM after 48 hrs by sulforhodamine B assay; type: functional; conditions: MCF7, 48 h, read-out: Activity
[35] = read-out: LC50 (the source's name)

`COc1cc(-c2nn(-c3cccc(NC(=O)c4cccc(C(F)(F)F)c4)c3)cc2-c2ccncc2)ccc1Cl` gave a growth at 10 µM [1] of 34.4%, a GI50 [2] of 1.94 µM and an LC50 (50% lethal concentration) [2] of over 50 µM. For the same compound, the TGI [2] was over 50 µM, the growth at 10 µM [3] was -39.6% and the GI50 [4] was 1.67 µM. The TGI [4] was over 50 µM, the CC50 [4, 35] was over 50 µM and the growth at 10 µM [5] was 32.5%. For the same compound, the growth at 10 µM [6] was 29.8%, the GI50 [7] was 2.87 µM and the LC50 (50% lethal concentration) [7] was over 50 µM. It also gave a TGI [7] of 46.8 µM, a growth at 10 µM [8] of 36% and a GI50 [9] of 2.31 µM. It also gave a TGI [9] of over 50 µM, a CC50 [9, 35] of over 50 µM and a GI50 [10] of 0.687 µM. The IC50 [10] was 0.69 µM, the TGI [10] was 2.78 µM and the CC50 [10, 35] was over 50 µM. The growth at 10 µM [11] was 13.4%, the growth at 10 µM [12] was 8.63% and the GI50 [13] was 0.895 µM. The LC50 (concentration killing 50% of cells) [13] was over 50 µM, the TGI [13] was 2.3 µM and the growth at 10 µM [14] was 31.6%. For the same compound, the GI50 [15] was 1.02 µM, the IC50 [15] was 1.02 µM and the TGI [15] was 3 µM. For the same compound, the CC50 [15, 35] was over 50 µM, the GI50 [16] was 1.89 µM and the TGI [16] was over 50 µM. It also gave a CC50 [16, 35] of over 50 µM, a growth at 10 µM [17] of 36.2% and a growth at 10 µM [18] of 27.2%. The GI50 [19] was 1.05 µM, the LC50 (concentration killing 50% of cells) [19] was over 50 µM and the TGI [19] was 3.85 µM. It also gave a growth at 10 µM [20] of 26%, a growth at 10 µM [21] of -48.8% and a GI50 [22] of 1.64 µM. It also gave an LC50 (concentration killing 50% of cells) [22] of 24.8 µM, a TGI [22] of 5.17 µM and a growth at 10 µM [23] of -1.13%. The GI50 [24] was 27.9 µM, the TGI [24] was over 50 µM and the CC50 [24, 35] was over 50 µM. It also gave a GI50 [25] of 0.811 µM, an LC50 (concentration killing 50% of cells) [25] of over 50 µM and a TGI [25] of 3.15 µM. It also gave a growth at 10 µM [26] of -19%, a growth at 10 µM [27] of 44.7% and a GI50 [28] of 2.49 µM. For the same compound, the LC50 [28] was over 50 µM, the TGI [28] was over 50 µM and the growth at 10 µM [29] was 34.5%. The GI50 [30] was 2.24 µM, the TGI [30] was 17.6 µM and the CC50 [30, 35] was over 50 µM. The growth at 10 µM [31] was 2.16%, the GI50 [32] was 1.83 µM and the LC50 (concentration killing 50% of cells) [32] was over 50 µM. For the same compound, the TGI [32] was over 50 µM, the growth at 10 µM [33] was 58.1% and the growth at 10 µM [34] was 3.58%.
